Measurements reported in publication PMC11314063, “Inhibition of DNA Topoisomerase Ι by Flavonoids and Polyacetylenes Isolated from Bidens pilosa L” (Molecules, 2024).
Read-outs that look alike come from different tables or passages of the source.

Assays:
A549 = assay: SRB cytotoxicity assay, A549; assay type: cell-based; conditions: Homo sapiens, read-out: IC50 Cytotoxicity A549
Source text: (§1) The cell lines MDA-MB-231 (No. TCHu227), A549 (No. TCHu150), and HepG2 (No. TCHu72) were obtained from the Cell Bank/Stem Cell Bank, Chinese Academy of Sciences (Shanghai, China). The cell lines DLD-1 (No. CC0507) and HCT116 (No. CC0506) were obtained from the Cell Bank of Cellcook Biotech Co., Ltd. (Guangzhou, China). Cell line HL-7702 (No. BNCC338358) was obtained from Bena Culture Collection (Zhengzhou, China).
(§2) The human cancer cell lines MDA-MB-231 (breast adenocarcinoma), DLD-1 (colorectal adenocarcinoma), A549 (lung epithelial carcinoma), HCT116 (colorectal adenocarcinoma), HepG2 (hepatocellular carcinoma), and human hepatocyte HL-7702 were cultured in Dulbecco’s modified eagle medium (DMEM, Biological Industries, Beit Haemek, Israel) containing 10% (v/v) fetal bovine serum (FBS, Biological Industries, Beit Haemek, Israel) at 37 °C in a humidified incubator (ThermoFisher, Carlsbad, CA, USA) with a 5% CO2 atmosphere.

HCT116 = assay: SRB cytotoxicity assay, HCT116; assay type: cell-based; conditions: Homo sapiens, read-out: IC50 Cytotoxicity HCT116
Source text: as §1, §2

MDA-MB-231 = assay: SRB cytotoxicity assay, MDA-MB-231; assay type: cell-based; conditions: Homo sapiens, read-out: IC50 Cytotoxicity MDA-MB-231
Source text: as §1, §2

HepG2 = assay: SRB cytotoxicity assay, HepG2; assay type: cell-based; conditions: Homo sapiens, read-out: IC50 Cytotoxicity HepG2
Source text: as §1, §2

DLD-1 = assay: SRB cytotoxicity assay, DLD-1; assay type: cell-based; conditions: Homo sapiens, read-out: IC50 Cytotoxicity DLD-1
Source text: as §1, §2

[1] = SRB cytotoxicity assay, hepatocyte HL-7702; assay type: cell-based, human
Source text: as §1, §2

DNA Topo I = biological target: T1, DNA Topo I (Homo sapiens, UniProt P11387); assay: Topo I inhibition assay (DNA relaxation assay); assay type: biochemical; conditions: for IC50: DNA relaxation assay, pBR322, mean ± SD; for percentage inhibition on Topo I activity / inhibition at 400 µM: at 400 μM; for inhibition at 400 µM: read-out: percentage inhibition on Topo I activity
T1 construct: purchased ThermoFisher, Waltham, MA, USA
T1 sequence (P11387 1-765): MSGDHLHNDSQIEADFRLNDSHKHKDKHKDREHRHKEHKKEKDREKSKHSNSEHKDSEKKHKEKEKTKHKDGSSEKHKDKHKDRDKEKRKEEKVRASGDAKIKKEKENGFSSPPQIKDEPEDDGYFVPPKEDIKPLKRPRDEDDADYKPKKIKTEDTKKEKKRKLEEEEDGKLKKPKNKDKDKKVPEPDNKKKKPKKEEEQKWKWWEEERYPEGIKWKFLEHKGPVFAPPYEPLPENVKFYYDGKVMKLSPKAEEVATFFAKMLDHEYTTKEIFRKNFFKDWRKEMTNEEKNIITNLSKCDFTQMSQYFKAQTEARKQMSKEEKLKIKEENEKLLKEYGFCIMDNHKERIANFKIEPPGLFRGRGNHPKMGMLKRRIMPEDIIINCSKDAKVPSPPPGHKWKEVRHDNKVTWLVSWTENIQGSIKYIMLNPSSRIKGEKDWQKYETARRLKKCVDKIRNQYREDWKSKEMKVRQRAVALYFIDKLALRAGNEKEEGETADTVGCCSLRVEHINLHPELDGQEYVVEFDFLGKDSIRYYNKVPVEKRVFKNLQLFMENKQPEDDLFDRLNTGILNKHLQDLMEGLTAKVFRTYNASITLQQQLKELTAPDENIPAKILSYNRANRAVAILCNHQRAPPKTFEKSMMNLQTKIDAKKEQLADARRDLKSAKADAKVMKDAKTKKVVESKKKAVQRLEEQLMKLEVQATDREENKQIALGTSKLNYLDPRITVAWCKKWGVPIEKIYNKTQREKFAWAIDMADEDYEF
Experimental: The DNA relaxation assay was adopted to investigate the compounds’ inhibitory activities on Topo I. Different concentrations of the compounds, dissolved and diluted in DMSO, were added into the relaxation buffer (50 mM Tris, pH 7.5, 50 mM KCl, 10 mM MgCl2, 0.1 mM EDTA, 0.5 Mm dithiothreitol, and 0.05 mg/mL bovine serum albumin) containing 0.2 U Topo I (ThermoFisher, Waltham, MA, USA) and incubated at room temperature for 10 min. After that, 500 ng supercoiled pBR322 plasmid DNA (ThermoFisher, Waltham, MA, USA) was added and then incubated at 37 °C for another 30 min. Finally, the reactions were stopped with a stopping solution (5% sodium dodecyl sulfate, 0.0025% bromophenol blue, and 25% glycerol), and the mixtures were applied onto 0.8% agarose gel and subjected to electrophoresis for 1.5 h in Tris-Acetate-EDTA buffer. After being stained with GelRed (Biotium, Fremont, CA, USA), the gel was imagined with the imaging system (Biotop, Shanghai, China). […] The band density of the supercoiled DNA was quantified by the ImageJ software (version 1.53a, National Institutes of Health, Bethesda, MD, USA), and the inhibition activity is expressed as the percentage inhibition and calculated by formula: Inhibition % = [(A − B)/(C − B)] × 100%, where A is the band density of the tested samples, B is the band density of the negative control, and C is the band density of the blank control.

[2] = A549, SRB assay, 48 h, mean ± SD
[3] = HCT-116, SRB assay, 48 h, mean ± SD
[4] = MDA-MB-231, SRB assay, 48 h, mean ± SD
[5] = HepG2, SRB assay, 48 h, mean ± SD
[6] = DLD-1, SRB assay, 48 h, mean ± SD
[7] = HL-7702 hepatocyte cell line, SRB assay, 48 h, human hepatocyte, mean ± SD, read-out: IC50 Cytotoxicity HL-7702

IC50 (DNA Topo I) [µM] | percentage inhibition on Topo I activity (DNA Topo I) | inhibition at 400 µM (DNA Topo I) [%] | SMILES | IC50 (A549; [2]) [µM] | IC50 (HCT116; [3]) [µM] | IC50 (MDA-MB-231; [4]) [µM] | IC50 (HepG2; [5]) [µM] | IC50 (DLD-1; [6]) [µM] | IC50 at 48 h [1, 7] [µM] | IC50 (A549; A549, 48 h) [µM] | IC50 (HCT116; HCT-116, 48 h) [µM] | IC50 (MDA-MB-231; MDA-MB-231, 48 h) [µM] | IC50 (HepG2; HepG2, 48 h) [µM] | IC50 (DLD-1; DLD-1, 48 h) [µM] | IC50 at 48 h ([1]; human) [µM]
– | – | – | CC[C@@]1(O)C(=O)OCc2c1cc1n(c2=O)Cc2cc3ccccc3nc2-1 [CPT, Camptothecin, reference compound] | 4.41 ± 1.11 | 12.1 ± 5.74 | 20.4 ± 3.7 | 1.71 ± 0.47 | 17 ± 3.82 | 2.11 | – | – | – | – | – | –
394 ± 39 | – | – | COc1ccc(/C=C/C(=O)c2ccc(O[C@@H]3O[C@H](CO)[C@@H](O)[C@H](O)[C@H]3O)c(O[C@@H]3O[C@H](CO)[C@@H](O)[C@H](O)[C@H]3O)c2O)cc1O [Compound 1, 4-O-methylokanin 3′,4′-di-O-β-D-glucopyranoside] | > 200 | > 200 | > 200 | > 200 | > 200 | > 200 | – | – | – | – | – | –
329 ± 58.8 | – | – | COc1ccc(/C=C/C(=O)c2ccc(O)c(O[C@@H]3O[C@H](CO)[C@@H](O)[C@H](O)[C@H]3O)c2O)cc1O [Compound 2] | > 200 | > 200 | > 200 | > 200 | > 200 | > 200 | – | – | – | – | – | –
> 400 | no inhibition | – | COc1cc(O)c2c(=O)c(OC)c(-c3ccc(O)c(O)c3)oc2c1 [Compound 4] | 8.16 ± 4.04 | 4.52 ± 0.04 | > 200 | 3.05 ± 1.31 | 7.14 ± 0.35 | 19.6 ± 0.62 | – | – | – | – | – | –
190 ± 22.1 | – | – | COc1cc(-c2oc3cc(O)c(OC)c(O)c3c(=O)c2O)ccc1O [Compound 8] | 178 ± 4.38 | > 200 | > 200 | > 200 | 187 ± 48.6 | > 200 | – | – | – | – | – | –
> 400 | no inhibition | – | COc1ccc(-c2oc3c(O)c(OC)c(O[C@@H]4O[C@H](CO)[C@@H](O)[C@H](O)[C@H]4O)cc3c(=O)c2OC)cc1O [Compound 9] | 135 ± 32.3 | 87.7 ± 15.3 | > 200 | > 200 | 50.5 ± 0.31 | 126 ± 7.08 | – | – | – | – | – | –
> 400 | no inhibition | – | COc1cc(OC)cc(-c2oc3cc(O[C@@H]4O[C@H](CO)[C@@H](O)[C@H](O)[C@H]4O)cc(O)c3c(=O)c2O)c1 [Compound 10] | > 200 | 59.3 ± 4.56 | > 200 | > 200 | 63 ± 4.08 | 114.8 ± 0.55 | – | – | – | – | – | –
> 400 | – | 26.4 | COc1c(O[C@@H]2O[C@H](CO)[C@@H](O)[C@H](O)[C@H]2O)cc2oc(-c3ccc(O)c(O)c3)c(OC)c(=O)c2c1O [Compound 12] | > 200 | > 200 | > 200 | > 200 | > 200 | > 200 | – | – | – | – | – | –
> 400 | no inhibition | – | COc1ccc(-c2oc3cc(O[C@@H]4O[C@H](CO)[C@@H](O)[C@H](O)[C@H]4O)c(OC)c(O)c3c(=O)c2OC)cc1O [Compound 14] | > 200 | > 200 | > 200 | > 200 | > 200 | > 200 | – | – | – | – | – | –
89.9 ± 28.1 | – | – | O=c1cc(-c2ccc(O)c(O)c2)oc2cc(O)cc(O)c12 [Compound 15, luteolin] | – | – | – | – | – | – | 93.9 ± 2.92 | 31.7 ± 1.54 | 94.91 ± 0.5 | 175 ± 16.6 | 69.2 ± 4.04 | > 200
> 400 | – | 10.9 | COc1ccc([C@@H]2CC(=O)c3ccc(O)c(O[C@@H]4O[C@H](CO)[C@@H](O)[C@H](O)[C@H]4O)c3O2)cc1O [Compound 16] | > 200 | > 200 | > 200 | > 200 | > 200 | > 200 | – | – | – | – | – | –
> 400 | no inhibition | – | COc1ccc([C@@H]2CC(=O)c3c(O)cc(O[C@@H]4O[C@H](CO)[C@@H](O)[C@H](O)[C@H]4O)cc3O2)cc1O [Compound 17] | > 200 | > 200 | > 200 | > 200 | > 200 | > 200 | – | – | – | – | – | –
> 400 | – | 46.7 | O=C1/C(=C/c2ccc(O)c(O)c2)Oc2c1ccc(O[C@@H]1O[C@H](CO)[C@@H](O)[C@H](O)[C@H]1O)c2O [Compound 18] | > 200 | > 200 | > 200 | > 200 | > 200 | > 200 | – | – | – | – | – | –
47.5 ± 15.3 | – | – | CC(=O)OC[C@H]1O[C@@H](Oc2ccc3c(c2O)O/C(=C\c2ccc(O)c(O)c2)C3=O)[C@H](O)[C@@H](O)[C@@H]1O [Compound 19] | > 200 | > 200 | > 200 | > 200 | > 200 | > 200 | – | – | – | – | – | –
301 ± 34.9 | – | – | OC[C@H](O)CC#CC#Cc1ccc(O)cc1 [Compound 20, (R)-7-(4-hydroxyphenyl) hepta-4,6-diyne-1,2-diol] | 194 ± 12.8 | 174 ± 2.47 | > 200 | > 200 | > 200 | > 200 | – | – | – | – | – | –
> 400 | – | 23 | OCC(O)CC#CC#Cc1ccccc1 (stereo not drawn) [Compound 21] | 187 ± 6.63 | > 200 | > 200 | > 200 | > 200 | > 200 | – | – | – | – | – | –
178 ± 45.7 | – | – | CC(O)CC#CC#Cc1ccccc1 (stereo not drawn) [Compound 22] | 125 ± 23.4 | 118 ± 5.7 | 146 ± 7.17 | 179 ± 3.62 | 142 ± 10.2 | 161 ± 2.18 | – | – | – | – | – | –
> 400 | – | 15.2 | CC#CC#CC#Cc1ccccc1 [Compound 23] | 130 ± 4.93 | 70.9 ± 3.73 | 140 ± 5.53 | 168 ± 10.8 | 123 ± 8.76 | 198.8 ± 0.86 | – | – | – | – | – | –
